Source: paper PMC8377144, “Retro-enantio isomer of angiopep-2 assists nanoprobes across the blood-brain barrier for targeted magnetic resonance/fluorescence imaging of glioblastoma” (Signal Transduction and Targeted Therapy, 2021)

Tested on: in vitro BBB model (bEnd.3 cells cocultured with U87-MG cells)
Assay: NaFl permeability test of the in vitro BBB model (Transwell)
Assay type: in vitro ADME, mouse
Conditions: bEnd.3 upper / U87-MG lower chamber, 3 µm polycarbonate, 0.33 cm^2, 200 µL NaFl 10 µg/mL upper, 900 µL PBS lower, 37 °C, sampling 30, 60, 90 min, microplate reader 485/535 nm
Procedure: Construction of the in vitro BBB model: U87-MG cells and bEnd.3 cells were initially cultured in high-glucose DMEM containing 10% FBS and 1% penicillin/streptomycin at 37 °C with 5% CO2. Moreover, a layer of a collagen solution was smeared on the inner side of the polycarbonate Transwell (3 µm mean pore size, 0.33 cm^2 surface area, Millipore, USA) and dried naturally on a clean bench for 30 min. Then, bEnd.3 cells were inoculated into the upper chamber of 24-well transwells units at a density of 5 × 10^4 cells per well. Two days later, U87-MG cells were inoculated into the lower chamber at a density of 1 × 10^5 cells per well and cocultured with bEnd.3 cells for one week.
Another test taken as an example from a previous study using sodium fluorescein (NaFl) was also introduced to evaluate in vitro BBB permeability.[44] […] The absorbance of standard solutions was obtained by a multidetection monochrometer microplate reader, and subsequently, a NaFl concentration-absorbance curve was made. With the help of the curve, we measured the in vitro BBB permeability with NaFl. […] Then, a multidetection monochrometer microplate reader (485/535 nm) was used to measure the amount of NaFl in the […]. The apparent permeability coefficient (Papp) was calculated as follows: […]

With `O=C([O-])c1ccccc1-c1c2ccc(=O)cc-2oc2cc([O-])ccc12.[Na+].[Na+]` [NaFl, sodium fluorescein] the “Papp of NaFl, BBB model group” value was 11.24 ± 0.73 × 10^−6 cm/s.
